Legend:
[1] = in vivo; cited from earlier work
lung tissue = details: saline/ATN-161, no SARS-CoV-2
[2] = cancer patients; cited from earlier work
SARS-CoV-2 = details: 1 h

| Substance | tissue distribution [1] | H&E histopathological changes in uninfected mice (lung tissue) | Masson's trichrome histopathological changes in uninfected mice (lung tissue) | safety in human clinical trials [2] | IC50 (SARS-CoV-2) [µM] |
| --- | --- | --- | --- | --- | --- |
| Ac-PHSCN-NH2 [ATN-161, Ac-PHSCN-NH2] [listing 1 of 2 here] | high tissue distribution | no histopathological changes in any of the mice | no histopathological changes in any of the mice | no dose limiting toxicity | – |
| Ac-PHSCN-NH2 [ATN-161, Ac-PHSCN-NH2] [listing 2 of 2 here] | – | – | – | – | 3.16 |

Reference: patent US20230146939A1, “TREATMENT FOR HUMAN CORONAVIRUS INFECTION” (THE ADMINISTRATORS OF THE TULANE EDUCATIONAL FUND, priority 2020, published 2023)
